Reference: EP0080779B1, “3-Benzazepines as alpha-2 antagonists” (SMITHKLINE BECKMAN CORPORATION, priority 1981, dated 1983)

Key:
[1] = test system: rabbit intraocular pressure; test: normal rabbit intraocular pressure determination, instillation into the eye; format: in vivo; conditions: instilled into the rabbit eye; at one hour; relative to the untreated eye
Method: The measurement of intraocular pressure depends on subjecting the eye to a force that indents or flattens it. Either the effect of a particular force or the force for a given effect is measured. The specific procedure employed for the compounds of this invention is a normal rabbit intraocular pressure determination. A solution of 0.5% proparacaine hydrochloride diluted 1:10 with physiological saline is instilled into the eye of a rabbit. The lids are gently massaged over the cornea to insure good distribution of the solution. The eye is exposed by separating the lids and the tip of a probe is slowly placed on the cornea at the point where the curvature of the cornea is the greatest, i.e., on the optic axis. Employing an Alcon Applanation Pneumatonograph, the intraocular pressure is determined in each eye until a stable reading is obtained. West, C., Capelta, J. and Kaufman, H., Am. J. Ophthalmol. 74:505 (1972).
Nine rabbits are used in each study, three animals for each dose in most circumstances. […] Immediately following the initial reading, the formulations to be tested, comprising concentrations of 0.01 to 10% of active ingredient, are instilled and pressure readings are taken at 0.5, 1, 2, 3, 4, and 6 hours post-instillation. The intraocular pressure is determined from the value recorded on the pneumotonograph chart paper. A mean intraocular pressure value is calculated at each time point. […]

[2] = test system: normotensive and hypertensive rats; test: antihypertensive activity in conscious cannulated rats, i.v. administration; format: in vivo
Method: (§1) Cannulas are run intradermally so as to be externalized in the dorso-sacral area of either side and kept in place by wound clips. The rats are allowed to regain consciousness after being placed in a small animal restrainer. The arterial cannula is connected to a pressure transducer for constant blood pressure and heart rate monitoring. Drugs are administered either orally via gavage or i.v. via the femoral vein cannula at a rate of 0.06 ml./minute.
(§2) The above test is conducted on both normotensive and hypertensive rats. DOCA Salt hypertensive rats are prepared from male uninephrectomized Sprague-Dawley rats. The rats, approximately six weeks of age, are lightly anesthetized with ether and subcutaneously implanted with a 25 mg. deoxycorticosterone acetate pellet in the left dorso-sacral area. Six days later a second pellet is implanted in the right dorso-sacral area. These rats are fed a normal laboratory diet, but are given 1% saline solution to drink in place of water. The rats are kept on the saline drinking water for 22-24 days.
The following table sets forth the effect of 6-chloro-2,3,4,5-tetrahydro-3-methyl-1 H-3-benzazepine on blood pressure after i.v. administration to both normotensive and hypertensive rats.

[3] = test system: conscious normotensive rabbits; test: rabbit intraocular pressure determination, compound given systemically (ear vein infusion); format: in vivo; conditions: given systemically to rabbits; result in words
[4] = test system: DOCA-salt hypertensive rat; test: antihypertensive activity in DOCA-salt hypertensive rat, oral administration; format: in vivo
Method: as §1, §2
The effect of the oral administration of 6-chloro-2,3,4,5-tetrahydro-3-methyl-1H-3-benzazepine on blood pressure in the DOCA-salt hypertensive rat was also determined.

alpha2 adrenoceptor = test: prejunctional alpha2 antagonist activity, isolated superfused guinea pig left atrium (shift of the clonidine concentration-response curve); format: cell-based
Method: Briefly, the heart is removed from a pentobarbital-anesthetized male guinea pig. The left atrium is removed, dissected free of extraneous tissue and mounted in a 2 ml. superfusion chamber. The tissue is paced at 60 pulse/minute and the sympathetic nerves excited at 6 minute intervals by field stimulation. The response to nerve stimulation is measured as the difference in contractile force between the basal contraction and peak contraction following a nerve stimulation. A concentration-response curve for clonidine (alpha2 agonist) is prepared by administering an increasing concentration of clonidine following each successive stimulation. The tissue is then superfused with the alpha2 antagonist to be tested for thirty minutes and the clonidine concentration- effect curve was repeated in the presence of antagonist. The receptor dissociation constant of the antagonist (KB) is defined as the antagonist concentration required to shift the log concentration-response curve of the agonist to the right by a factor of 2.

Row | Compound | decrease of intraocular pressure [1] | Diastolic Blood Pressure Decrease BP ([2]; DOCA Salt Hypertensive rats, n = 4, 0.5 mg/kg I.V., Pre Drug 135 ± 5 MMHg) [MMHg] | Diastolic Blood Pressure Decrease BP ([2]; DOCA Salt Hypertensive rats, n = 4, 1.0 mg/kg I.V., Pre Drug 135 ± 5 MMHg) [MMHg] | Diastolic Blood Pressure Decrease BP ([2]; Normotensive (control) (Sprague-Dawley) rats, n = 4, 0.5 mg/kg I.V., Pre Drug 95 ± 7 MMHg) [MMHg] | Diastolic Blood Pressure Decrease BP ([2]; Normotensive (control) (Sprague-Dawley) rats, n = 4, 1.0 mg/kg I.V., Pre Drug 95 ± 7 MMHg) [MMHg] | Diastolic Blood Pressure Decrease BP ([2]; Normotensive (control) (Wistar-Kyoto) rats, n = 4, 0.5 mg/kg I.V., Pre Drug 115 ± 3 MMHg) [MMHg] | Diastolic Blood Pressure Decrease BP ([2]; Normotensive (control) (Wistar-Kyoto) rats, n = 4, 1.0 mg/kg I.V., Pre Drug 115 ± 3 MMHg) [MMHg] | Diastolic Blood Pressure Decrease BP ([2]; Spontaneously Hypertensive rats, n = 7, 0.5 mg/kg I.V., Pre Drug 167 ± 3 MMHg) [MMHg] | Diastolic Blood Pressure Decrease BP ([2]; Spontaneously Hypertensive rats, n = 7, 1.0 mg/kg I.V., Pre Drug 167 ± 3 MMHg) [MMHg] | effect on systemic blood pressure [3] | Δ BP ([4]; 2 mg/kg PO) [MM Hg] | Mean Arterial Pressure Post-Drug ([4]; 2 mg/kg PO, Pre-Drug 148 ± 11) | Δ BP ([4]; 5 mg/kg PO) [MM Hg] | Mean Arterial Pressure Post-Drug ([4]; 5 mg/kg PO, Pre-Drug 160 ± 7) | Δ BP ([4]; 10 mg/kg PO) [MM Hg] | Mean Arterial Pressure Post-Drug ([4]; 10 mg/kg PO, Pre-Drug 167 ± 8) | alpha2 antagonist activity relative to the 6-chloro derivative (alpha2 adrenoceptor; comparison of KB values) | Kb (alpha2 adrenoceptor; isolated perfused guinea pig left atrium, antagonist concentration shifting the clonidine curve to the right by a factor of 2) [nM]
1 | CN1CCc2cccc(Cl)c2CC1 [6-chloro-2,3,4,5-tetrahydro-3-methyl-1H-3-benzazepine] | 3.5 mm of mercury | 27 ± 3 | 33 ± 4 | 6 ± 2 | 13 ± 1 | 7 ± 2 | 10 ± 2 | 33 ± 7 | 46 ± 2 | no significant effect | 17 ± 3 | 131 ± 12 | 34 ± 4 | 127 ± 5 | 68 ± 8 | 99 ± 4 | – | –
2 | CN1CCc2ccc(Cl)cc2CC1 [7-chloro-2,3,4,5-tetrahydro-3-methyl-1H-3-benzazepine] | – | – | – | – | – | – | – | – | – | – | – | – | – | – | – | – | about one tenth | 150
